Results from patent US9073967B2, “High salt-resistance antibacterial peptide and method for producing the same” (NATIONAL TSING HUA UNIVERSITY, priority 2011, dated 2015).
Converted amounts (≈) assume the structure as drawn.

What was measured:
[1] = system: C. krusei HIV patient YHO50075; assay: organism not typed
[2] = system: C. albicans HIV patient YHO50005; assay: organism not typed
[3] = system: C. glabrata ATCC 9003 YLO8; assay: microbe, parasite or virus in culture; conditions: Nakaseomyces glabratus, ATCC9003
[4] = system: C. parapsilosis ATCC 22019 YLO7; assay: microbe, parasite or virus in culture; conditions: Lodderomyces parapsilosis, ATCC22019
[5] = system: C. tropicalis HIV patient YHO50013; assay: organism not typed
[6] = system: C. tropicalis ATCC 13803 YLO86; assay: microbe, parasite or virus in culture; conditions: Candida tropicalis, ATCC13803
[7] = system: C. dubliniensis HIV patient YHO50092; assay: organism not typed
[8] = system: C. albicans HIV patient YHO50001; assay: organism not typed
[9] = system: C. tropicalis HIV patient YHO50007; assay: organism not typed
C. krusei ATCC 6258 YLO6 = assay: microbe, parasite or virus in culture; conditions: Pichia kudriavzevii, ATCC6258
[10] = system: C. albicans ATCC 90028 YLO12; assay: microbe, parasite or virus in culture; conditions: Candida albicans, ATCC90028
[11] = system: C. tropicalis HIV patient YHO50114; assay: organism not typed
[12] = system: C. albicans HIV patient YHO50072; assay: organism not typed
[13] = system: C. glabrata HIV patient YHO50105; assay: organism not typed

OC(Cn1cncn1)(Cn1cncn1)c1ccc(F)cc1F [Flu, fluconazole] gave an MIC [1] of 64 µg/mL (≈ 209 µM), an MIC [2] of 1 µg/mL (≈ 3.27 µM) and an MIC [3] of 16 µg/mL (≈ 52.2 µM). It also gave an MIC [4] of 8 µg/mL (≈ 26.1 µM), an MIC [5] of over 64 µg/mL and an MIC [6] of over 64 µg/mL. It also gave an MIC [7] of 0.5 µg/mL (≈ 1.63 µM), an MIC [8] of 2 µg/mL (≈ 6.53 µM) and an MIC [9] of over 64 µg/mL. The MIC (C. krusei ATCC 6258 YLO6) was 32 µg/mL (≈ 104 µM), the MIC [10] was 1 µg/mL (≈ 3.27 µM) and the MIC [11] was over 64 µg/mL. The MIC [12] was over 64 µg/mL and the MIC [13] was 16 µg/mL (≈ 52.2 µM).
